Experimental data published in ChEMBL document CHEMBL1201862, “PubChem BioAssay data set” (2004).
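Where inhibition never reached the appropriate level, the endpoint shown equals the highest concentration tested. Otherwise, values were interpolated linearly from a five-concentration, 48-hour dose response in 96-well plates. GI50 = concentration required for 50% inhibition of growth.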 Calls of active or inactive are those of the source. No stated cut-off is given here; in the data, active = GI50 up to about 1.1 µM and inactive = higher.

What was measured:
Assay in all cases: NCI-60 cell line screen, 48 h
786-0 = system: 786-0
SNB-19 = system: SNB-19
M14 = system: M14
SK-MEL-5 = system: SK-MEL-5
CCRF-CEM = system: CCRF-CEM
OVCAR-3 = system: OVCAR-3
TK-10 = system: TK-10
HL-60 = system: HL-60
K562 = system: K562
HT-29 = system: HT-29
MOLT-4 = system: MOLT-4
SK-OV-3 = system: SK-OV-3
SF-268 = system: SF-268
HOP-62 = system: HOP-62
UACC-257 = system: UACC-257
SK-MEL-2 = system: SK-MEL-2
SF-539 = system: SF-539
RXF 393 = system: RXF 393
CAKI-1 = system: CAKI-1

Row | Compound | GI50 (786-0) | GI50 (SNB-19) | GI50 (M14) | GI50 (SK-MEL-5) | GI50 (CCRF-CEM) | GI50 (OVCAR-3) | GI50 (TK-10) | GI50 (HL-60) | GI50 (K562) | GI50 (HT-29) | GI50 (MOLT-4) | GI50 (SK-OV-3) | GI50 (SF-268) | GI50 (HOP-62) | GI50 (UACC-257) | GI50 (SK-MEL-2) | GI50 (SF-539) | GI50 (RXF 393) | GI50 (CAKI-1)
1 | CCOC(=O)c1cnc2c(ccc3ncccc32)c1OCC | > 100 µM (inactive) | > 100 µM (inactive) | > 100 µM (inactive) | > 100 µM (inactive) | 59.6 µM (inactive) | > 100 µM (inactive) | 60.5 µM (inactive) | > 100 µM (inactive) | > 100 µM (inactive) | > 100 µM (inactive) | 71.8 µM (inactive) | > 100 µM (inactive) | > 100 µM (inactive) | > 100 µM (inactive) | > 100 µM (inactive) | > 100 µM (inactive) | > 100 µM (inactive) | 82 µM (inactive) | –
2 | CN(C)c1ccc(C(C#N)NNC(=O)Cc2ccccc2)cc1 (stereo not given) | > 100 µM (inactive) | – | > 100 µM (inactive) | > 100 µM (inactive) | > 100 µM (inactive) | > 100 µM (inactive) | > 100 µM (inactive) | > 100 µM (inactive) | > 100 µM (inactive) | > 100 µM (inactive) | > 100 µM (inactive) | > 100 µM (inactive) | > 100 µM (inactive) | > 100 µM (inactive) | > 100 µM (inactive) | > 100 µM (inactive) | > 100 µM (inactive) | > 100 µM (inactive) | > 100 µM (inactive)
3 | COC(=O)C(C(=O)OC)C1CCCC(=O)C1 (stereo not given) | > 100 µM (inactive) | > 100 µM (inactive) | > 100 µM (inactive) | > 100 µM (inactive) | > 100 µM (inactive) | > 100 µM (inactive) | > 100 µM (inactive) | > 100 µM (inactive) | > 100 µM (inactive) | > 100 µM (inactive) | > 100 µM (inactive) | > 100 µM (inactive) | > 100 µM (inactive) | > 100 µM (inactive) | > 100 µM (inactive) | < 0.01 µM (active) | > 100 µM (inactive) | > 100 µM (inactive) | –
4 | CCN(CC)CCCNC(=O)Cc1ccccc1Nc1c(Cl)cccc1Cl | 0.465 µM (active) | 16.9 µM (inactive) | 2.82 µM (inactive) | 3.85 µM (inactive) | 11.7 µM (inactive) | 16 µM (inactive) | 13.7 µM (inactive) | 11.8 µM (inactive) | 5.6 µM (inactive) | 4.48 µM (inactive) | 11.4 µM (inactive) | 15.3 µM (inactive) | 16.1 µM (inactive) | 16 µM (inactive) | 4.03 µM (inactive) | – | 14.2 µM (inactive) | 15.8 µM (inactive) | –
5 | O=c1c(Br)cc2nc3ccccc3sc-2c1Br | 15.4 µM (inactive) | > 100 µM (inactive) | > 100 µM (inactive) | 29.5 µM (inactive) | 23.8 µM (inactive) | 16.9 µM (inactive) | > 100 µM (inactive) | 16.3 µM (inactive) | 18.7 µM (inactive) | > 100 µM (inactive) | 22.2 µM (inactive) | > 100 µM (inactive) | 72.1 µM (inactive) | > 100 µM (inactive) | 31.3 µM (inactive) | > 100 µM (inactive) | > 83.9 µM (inactive) | > 100 µM (inactive) | > 100 µM (inactive)
